# Source: ChEMBL document CHEMBL4699471, “Design and synthesis of purine connected piperazine derivatives as novel inhibitors of Mycobacterium tuberculosis” (2020)
# Tested on: Mycobacterium tuberculosis
# Assay: Antimycobacterial activity against Mycobacterium tuberculosis H37Rv assessed as inhibition of bacterial growth by MABA assay
# Assay type: functional
smiles,measurement,value
CC#CCn1c(N2CCN(C(=O)c3cccnc3C(F)(F)F)CC2)nc2c1c(=O)n(Cc1ccc(F)c(F)c1)c(=O)n2C,MIC,41.6 µM
CC#CCn1c(N2CCN(C(=O)c3csc(Br)n3)CC2)nc2c1c(=O)n(Cc1ccc(F)c(F)c1)c(=O)n2C,MIC,40.5 µM
CC#CCn1c(N2CCN(S(=O)(=O)c3cccc(Cl)c3)CC2)nc2c1c(=O)n(Cc1ccc(F)c(F)c1)c(=O)n2C,MIC,12.5 µM
CC#CCn1c(N2CCN(C(=O)Nc3ccc(SC)cc3)CC2)nc2c1c(=O)n(Cc1ccc(F)c(F)c1)c(=O)n2C,MIC,10.3 µM
CC#CCn1c(N2CCN(S(=O)(=O)c3ccccc3)CC2)nc2c1c(=O)n(Cc1ccc(F)c(F)c1)c(=O)n2C,MIC,44 µM
CC#CCn1c(N2CCN(C(=O)Nc3ccc(C(F)(F)F)cc3)CC2)nc2c1c(=O)n(Cc1ccc(F)c(F)c1)c(=O)n2C,MIC,5.08 µM
CC#CCn1c(N2CCN(C(=O)c3nccnc3Cl)CC2)nc2c1c(=O)n(Cc1ccc(F)c(F)c1)c(=O)n2C,MIC,44 µM
CC[C@@H](CO)NCCN[C@@H](CC)CO [ETHAMBUTOL],MIC,7.63 µM
CC#CCn1c(N2CCN(C(=O)Cc3ccc(F)cc3)CC2)nc2c1c(=O)n(Cc1ccc(F)c(F)c1)c(=O)n2C,MIC,44.3 µM
CC#CCn1c(N2CCN(C(=O)C3CCCCN3C(=O)OC(C)(C)C)CC2)nc2c1c(=O)n(Cc1ccc(F)c(F)c1)c(=O)n2C (stereo not drawn),MIC,39.1 µM
CC#CCn1c(N2CCN(C(=O)c3cccc4ccccc34)CC2)nc2c1c(=O)n(Cc1ccc(F)c(F)c1)c(=O)n2C,MIC,53.3 µM
CC#CCn1c(N2CCN(C(=O)C34CC5CC(CC(C5)C3)C4)CC2)nc2c1c(=O)n(Cc1ccc(F)c(F)c1)c(=O)n2C,MIC,43.4 µM
CC#CCn1c(N2CCN(C(=S)Nc3ccc(Cl)cc3)CC2)nc2c1c(=O)n(Cc1ccc(F)c(F)c1)c(=O)n2C,MIC,34.5 µM
O=C(O)c1cn(C2CC2)c2cc(N3CCNCC3)c(F)cc2c1=O [CIPROFLOXACIN],MIC,0.94 µM
CC#CCn1c(N2CCN(C(=O)c3c(F)cc(OC)cc3F)CC2)nc2c1c(=O)n(Cc1ccc(F)c(F)c1)c(=O)n2C,MIC,41.8 µM
CC#CCn1c(N2CCN(C(=O)Nc3cccc(C(F)(F)F)c3)CC2)nc2c1c(=O)n(Cc1ccc(F)c(F)c1)c(=O)n2C,MIC,20.3 µM
CC#CCn1c(N2CCN(C(=S)Nc3ccccc3Br)CC2)nc2c1c(=O)n(Cc1ccc(F)c(F)c1)c(=O)n2C,MIC,39 µM
CC#CCn1c(N2CCN(C(=S)Nc3c(F)cccc3Cl)CC2)nc2c1c(=O)n(Cc1ccc(F)c(F)c1)c(=O)n2C,MIC,40.6 µM
CC#CCn1c(N2CCN(C(=O)Nc3ccccc3Cl)CC2)nc2c1c(=O)n(Cc1ccc(F)c(F)c1)c(=O)n2C,MIC,49.2 µM
C=CCNC(=O)N1CCN(c2nc3c(c(=O)n(Cc4ccc(F)c(F)c4)c(=O)n3C)n2CC#CC)CC1,MIC,52.4 µM
CC#CCn1c(N2CCN(C(=S)Nc3ccccc3Cl)CC2)nc2c1c(=O)n(Cc1ccc(F)c(F)c1)c(=O)n2C,MIC,41.9 µM
CC#CCn1c(N2CCN(C(=O)C3CCC(C(F)(F)F)CC3)CC2)nc2c1c(=O)n(Cc1ccc(F)c(F)c1)c(=O)n2C (stereo not drawn),MIC,16.4 µM
CC#CCn1c(N2CCN(C(=O)Nc3ccc(Cl)cc3)CC2)nc2c1c(=O)n(Cc1ccc(F)c(F)c1)c(=O)n2C,MIC,41 µM
CC#CCn1c(N2CCN(C(=S)Nc3cccc(Cl)c3)CC2)nc2c1c(=O)n(Cc1ccc(F)c(F)c1)c(=O)n2C,MIC,7.17 µM
CC#CCn1c(N2CCN(C(=O)C3Cc4ccccc4N3)CC2)nc2c1c(=O)n(Cc1ccc(F)c(F)c1)c(=O)n2C (stereo not drawn),MIC,43.6 µM
CC#CCn1c(N2CCN(C(=O)c3ccc(C(F)(F)F)cc3)CC2)nc2c1c(=O)n(Cc1ccc(F)c(F)c1)c(=O)n2C,MIC,51.5 µM
CC#CCn1c(N2CCN(C(=O)c3sccc3Cl)CC2)nc2c1c(=O)n(Cc1ccc(F)c(F)c1)c(=O)n2C,MIC,43.7 µM
CC#CCn1c(N2CCN(C(=O)c3ccccc3C(F)(F)F)CC2)nc2c1c(=O)n(Cc1ccc(F)c(F)c1)c(=O)n2C,MIC,41.6 µM
CC#CCn1c(N2CCN(C(=O)C3CCC3)CC2)nc2c1c(=O)n(Cc1ccc(F)c(F)c1)c(=O)n2C,MIC,49 µM
CC#CCn1c(N2CCN(C(=O)c3cccc(F)c3)CC2)nc2c1c(=O)n(Cc1ccc(F)c(F)c1)c(=O)n2C,MIC,45.4 µM
CC#CCn1c(N2CCN(C(=O)COc3ccccc3)CC2)nc2c1c(=O)n(Cc1ccc(F)c(F)c1)c(=O)n2C,MIC,44.5 µM
NNC(=O)c1ccncc1 [ISONIAZID],MIC,0.66 µM
CC#CCn1c(N2CCN(C(=O)CCc3ccc(F)cc3)CC2)nc2c1c(=O)n(Cc1ccc(F)c(F)c1)c(=O)n2C,MIC,43.2 µM
